Results from patent US20090280984A1, “Method of Inhibiting the Growth of Algae” (ITEQ CORPORATION, priority 2008, published 2009).

Test system: Microcystis aeruginosa
Experiment: Inhibition of algal growth, detection of Chlorophyll-a content by spectrometry (absorbance at 665 nm after ethanol extraction)
Type: cell-based
Protocol: In the following embodiment, three specimens, chitosan, glucosamine, and the combination of both, were used as inhibitors to inhibit algal growth and their inhibition efficiency was tested as well. In this embodiment, one kind of toxic Cyanobacteria, Microcystis aeruginosa, is used for the inhibition test. Since chlorophyll-a content of algae is widely used as an indicator of the abundance of algae in a freshwater body, the chlorophyll-a content of Microcystis aeruginosa in the sample was detected by spectrometry.
First, four 0.5 ml portions of Microcystis aeruginosa solution were obtained and were labeled as sample I, II, III and IV, respectively, and 49.5 ml of Bold's medium was added to each sample. Next, chitosan, glucosamine, and the combination were added to sample II, III and IV, respectively, so that sample II contains 10 ppm chitosan, and sample III contains 10 ppm glucosamine, and sample IV contains 5 ppm chitosan and 5 ppm glucosamine. Sample I without any chitosan and glucosamine added was used as the control. After that, these four samples were cultured for 14 days. During that time, the Chlorophyll-a content of four samples were detected every 7 days according to the procedures mentioned below.
A portion of each sample was obtained and centrifuged at 10000 rpm at 20° C. for 15 mins, and then the supernatant was poured out. Next, four 10 ml portions of 95% (v/v) ethanol were added to sample I to IV and mixed with the residues. Next, the solution of each sample was water-bathed in 60° C. water for 30 mins to extract Chlorophyll-a. When being bathed in the water, the solution of each sample was shaken every ten minutes. After that, the solutions were centrifuged at 5000 G at 20° C. for 15 minutes and the supernatants were kept. Then, the absorbance at 665 nm of […] were detected. Finally, according to the “Standard Methods for the Examination Chlorophyll-a in Water-Ethanol Extraction” issued by National Institute of Environmental Analysis, Taiwan (NIEA E508.00B), the absorbance at 665 nm of samples I to IV were calibrated and the concentration of Chlorophyll-a content of each sample was calculated by the absorbance measured.
Basically, the whole process was the same as mentioned above except the concentration of chitosan and glucosamine in samples, and the Chlorophyll-a content was also detected. The concentration of glucosamine and chitosan contained in each sample and the Chlorophyll-a content detected are show in Table 2.

SMILES: N[C@H]1C(O)O[C@H](CO)[C@@H](O)[C@@H]1O (stereo partly drawn) [III, glucosamine]
- Chlorophyll-a Content (Embodiment I, 0th day, Microcystis aeruginosa in Bold's medium): 6.9 ppb
- Chlorophyll-a Content (Embodiment I, 7th day, control (sample I) 278 ppb): 33 ppb
- Chlorophyll-a Content (Embodiment I, 14th day, control (sample I) 2470 ppb): 554 ppb
- Chlorophyll-a Content (Embodiment II, 7th day, Blank 62 ppb, original content 9.7 ppb): 50 ppb
- Chlorophyll-a Content (Embodiment II, 14th day, Blank 418 ppb, original content 9.7 ppb): 124 ppb
- inhibition of the growth of algae (in words) (Microcystis aeruginosa, chlorophyll-a as indicator): could inhibit the growth of algae
